Measured values published in ChEMBL document CHEMBL5625182, “Synthesis and antibacterial activities of baulamycin A inspired derivatives” (Eur J Med Chem, 2023).
Values after ≈ are worked out from the molar mass of the structure shown. Active and inactive are the calls of the source. The calls are words filed in the database; no cut-off is given here.

Tests used:
[1] = target: T1, L-2,3-diaminopropanoate--citrate ligase (Staphylococcus aureus (strain NCTC 8325 / PS 47), UniProt Q2G1M9); assay: Inhibition of Staphylococcus aureus SbnE incubated for 1 hr by malachite green staining based microplate reader analysis
T1 sequence (Q2G1M9 whole entry): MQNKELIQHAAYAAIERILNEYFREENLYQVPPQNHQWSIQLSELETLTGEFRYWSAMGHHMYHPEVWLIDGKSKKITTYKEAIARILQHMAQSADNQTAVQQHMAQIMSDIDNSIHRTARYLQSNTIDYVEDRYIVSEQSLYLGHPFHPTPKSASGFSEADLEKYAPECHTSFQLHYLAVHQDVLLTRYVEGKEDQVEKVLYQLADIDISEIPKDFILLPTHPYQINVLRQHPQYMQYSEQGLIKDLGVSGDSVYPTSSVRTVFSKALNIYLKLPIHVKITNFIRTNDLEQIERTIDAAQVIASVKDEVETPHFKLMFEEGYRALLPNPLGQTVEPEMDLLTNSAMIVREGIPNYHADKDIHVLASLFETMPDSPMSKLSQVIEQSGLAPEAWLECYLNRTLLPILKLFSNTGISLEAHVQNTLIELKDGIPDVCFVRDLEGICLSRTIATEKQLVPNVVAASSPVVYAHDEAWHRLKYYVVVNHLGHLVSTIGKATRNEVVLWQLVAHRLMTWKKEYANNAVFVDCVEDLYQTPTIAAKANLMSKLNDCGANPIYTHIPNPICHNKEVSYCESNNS

[2] = test system: Staphylococcus aureus; assay: Antibacterial activity against methicillin resistant Staphylococcus aureus CCARM3167 assessed as inhibition in bacterial growth incubated for 18 hrs by microdilution method; format: functional
[3] = target: T2, L-2,3-diaminopropanoate--citrate ligase (Staphylococcus aureus (strain NCTC 8325 / PS 47)) (UniProt Q2G1M9); assay: Inhibition of Staphylococcus aureus SbnE at 50 uM incubated for 1 hr by malachite green staining based microplate reader analysis relative to control
T2 sequence (whole entry): T1 sequence (Q2G1M9 whole entry)

[4] = test system: Staphylococcus aureus; assay: Antibacterial activity against […] Staphylococcus aureus ATCC25923 assessed as inhibition in bacterial growth incubated for 18 hrs by microdilution method; format: functional
[5] = test system: Escherichia coli; assay: Antibacterial activity against Escherichia coli MC1061 assessed as inhibition of bacterial growth incubated for 18 hrs by microdilution method; format: functional
[6] = test system: Staphylococcus aureus; assay: Antibacterial activity against quinolone-resistant Staphylococcus aureus CCARM3505 assessed as inhibition of bacterial growth incubated for 18 hrs by microdilution method; format: functional
[7] = Antibacterial activity against Bacillus subtilis ATCC6633 assessed as inhibition of bacterial growth incubated for 18 hrs by microdilution method; format: functional, Bacillus subtilis […]
[8] = test system: Salmonella typhimurium; assay: Antibacterial activity against Salmonella typhimurium ATCC14028 assessed as inhibition of bacterial growth incubated for 18 hrs by microdilution method; format: functional, Salmonella enterica subsp. enterica serovar Typhimurium; conditions: Salmonella enterica
[9] = test system: Bacillus cereus; assay: Antibacterial activity against Bacillus cereus ATCC27348 assessed as inhibition of bacterial growth incubated for 18 hrs by microdilution method; format: functional
[10] = test system: Cell membrane; assay: Induction of membrane disruption in methicillin resistant Staphylococcus aureus CCARM3167 at MIC incubated for 30 mins PI staining based Flow cytometry

SMILES	IC50 [1] [µM]	MIC [2] [µg/mL]	inhibition [3] [%]	MIC [4] [µg/mL]	MIC [5] [µg/mL]	MIC [6] [µg/mL]	MIC [7] [µg/mL]	MIC [8] [µg/mL]	MIC [9] [µg/mL]	Activity [10]
CC(C)C[C@H]([C@H](O)CCNCc1cccc([N+](=O)[O-])c1)[C@@H](O)c1cc(O)cc(O)c1	92.5	> 256	50.8	> 256						
CC(C)C[C@H]([C@H](O)CCNc1ccccc1)[C@@H](O)c1cc(O)cc(O)c1	18.2	8 (≈ 22.3 µM)	75.1	4 (≈ 11.1 µM)						
CC(C)C[C@H]([C@H](O)CCNc1ccc(Cl)cc1Cl)[C@@H](O)c1cc(O)cc(O)c1		4 (≈ 9.34 µM)	41.8	8 (≈ 18.7 µM)						
C[C@@H](CO)C[C@H](C)C[C@H](C)C#CC(O)CC(O)C[C@@H](O)c1cc(O)cc(O)c1 (single isomer, unassigned)		128 (≈ 324 µM)	6.92	128 (≈ 324 µM)						
C[C@@H](COCc1ccccc1)C[C@H](C)C[C@H](C)C#CC(O)CC(O)C[C@@H](O)c1cc(O)cc(O)c1 (single isomer, unassigned)		64 (≈ 132 µM)	33.6	64 (≈ 132 µM)						
CCN(CC[C@@H](O)[C@@H](CC(C)C)[C@@H](O)c1cc(O)cc(O)c1)Cc1ccccc1		16 (≈ 39.8 µM)	5.19	16 (≈ 39.8 µM)						
CCn1cc(C(=O)O)c(=O)c2cc(F)c(N3CCNCC3)cc21 [NORFLOXACIN]		4 (≈ 12.5 µM)	16.8	> 256	2 (≈ 6.26 µM)	> 256	4 (≈ 12.5 µM)	2 (≈ 6.26 µM)	2 (≈ 6.26 µM)	
CC(C)C[C@H]([C@H](O)CCNc1c(Cl)cccc1Cl)[C@@H](O)c1cc(O)cc(O)c1		128 (≈ 299 µM)	26.8	256 (≈ 598 µM)						
CCC(O)[C@H](C)C[C@H](C)C[C@H](C)CC[C@@H](O)C[C@@H](O)[C@@H](CC(C)C)[C@@H](O)c1cc(O)cc(O)c1 (some centres not stated)	17.1	32 (≈ 66.3 µM)	58.7	32 (≈ 66.3 µM)						
CC(C)C[C@H]([C@H](O)CCNc1ccc(O)cc1)[C@@H](O)c1cc(O)cc(O)c1		> 256	8.18	64 (≈ 170 µM)						
CC(C)C[C@H]([C@H](O)CCNc1ccccn1)[C@@H](O)c1cc(O)cc(O)c1		> 256	36.4	> 256						
CC(C)C[C@@H]([C@H](O)CCNCc1ccccc1)[C@@H](O)c1cc(O)cc(O)c1		> 256	5.63	> 256						
CCC(=O)[C@H](C)C[C@H](C)C[C@H](C)CC[C@@H](O)C[C@@H](O)[C@@H](CC(C)C)[C@@H](O)c1cc(O)cc(O)c1	14.4	256 (≈ 533 µM)	61.2	256 (≈ 533 µM)	64 (≈ 133 µM)	64 (≈ 133 µM)	> 256	> 256	256 (≈ 533 µM)	Active
Cc1ccc([N+](=O)[O-])cc1NCC[C@@H](O)[C@@H](CC(C)C)[C@@H](O)c1cc(O)cc(O)c1		64 (≈ 153 µM)	32	32 (≈ 76.5 µM)						
Cc1ccc(NCC[C@H](O)[C@@H](CC(C)C)[C@@H](O)c2cc(O)cc(O)c2)c(Cl)c1	18.9	64 (≈ 157 µM)	54.8	64 (≈ 157 µM)						
CC(C)C[C@H]([C@H](O)CCNc1cc(Cl)c(F)cc1[N+](=O)[O-])[C@@H](O)c1cc(O)cc(O)c1		256 (≈ 560 µM)	6.49	128 (≈ 280 µM)						
CC(C)C[C@H]([C@H](O)C[C@H](O)C#CCCCCCCOCc1ccccc1)[C@@H](O)c1cc(O)cc(O)c1	10.2	128 (≈ 257 µM)	81.9	128 (≈ 257 µM)	> 256	128 (≈ 257 µM)	> 256	> 256	64 (≈ 128 µM)	Active
Cc1onc(-c2ccccc2)c1C(=O)N[C@@H]1C(=O)N2[C@@H]1SC(C)(C)[C@@H]2C(=O)O [OXACILLIN]		> 256	10.2	0.25 (≈ 0.623 µM)	64 (≈ 159 µM)	> 256	8 (≈ 19.9 µM)	64 (≈ 159 µM)	32 (≈ 79.7 µM)	
